# Experimental data taken from patent US10865196B2, “Compounds for treatment of cancer” (University of Tennessee Research Foundation, priority 2008, dated 2020).
# Where “and” joins values, the source holds several entries; their conditions need not be identical. Identical values can stand only once. Like-named read-outs stand apart in the source and are kept apart here.
# Columns and labels:
# OVCAR-8 = assay: SRB antiproliferation assay, OVCAR-8 ovarian cancer; settings: Homo sapiens
# NCI/ADR-RES = assay: SRB antiproliferation assay, P-gp over-expressing NCI/ADR-RES; settings: for IC50: Homo sapiens, NCI/ADR-RES
# [1] = test system: Human A375 malignant melanoma cells; assay: A375 melanoma colony formation; type: cell-based; settings: 10 days
# Method: Human A375 malignant melanoma cells were plated at a colony-forming density (200 cells per well on six well plates). Cells were grown in DMEM medium (GIBCO, Invitrogen Corp., Carlsbad, Calif.) supplemented with charcoal-stripped fetal bovine serum (HyClone, Logan, Utah) and an antibiotic-antimycotic solution (Sigma, St. Louis, Mo.) at 37° C. in an atmosphere of 95% air and 5% CO2. […] Cells were grown for 10 days and colonies were fixed with 4% paraformaldehyde in PBS at 4° C. The fixed colonies were washed with distilled water, stained with 0.1% crystalline blue for 30 min and rinsed with distilled water to remove excess of the dye. Plates were photographed and colony formations were examined by eye and under the microscope.
# [2] = test system: LNCaP prostate cancer cells; assay: cell cycle analysis, propidium iodide; type: cell-based, human; settings: 24 h
# [3] = test system: melanoma (A375, B16-F1) and prostate cancer cells (DU145, PC-3, LNCaP, PPC-1); assay: SRB assay, range over melanoma and prostate cancer cell lines; type: cell-based; settings: range over the examined cell lines; read-out: IC50 over melanoma and prostate cancer cell lines
# Method: (§1) For melanoma assays, one human melanoma cell line (A375) and one mouse melanoma cell line (B16-F1) were used. […] Fibroblast cells were used as a control to determine the selectivity of these compounds against melanoma. Human dermal fibroblast cells were purchased from Cascade Biologics, Inc., Portland, Oreg., USA. […] Cells were exposed to a wide range of concentrations for 48 h in round-bottomed 96-well plates. […] After cells were air-dried overnight and stained with SRB solution, total proteins were measured at 560 nm with a plate reader.
# [4] = pharmacokinetic study in ICR mice; settings: mouse, IV 10 mg/kg
# [5] = pharmacokinetic study in Sprague-Dawley rats; settings: rat
# [6] = test system: NCI-60 human tumor cell lines; assay: NCI-60 screening assay
# PC-3 = assay: SRB antiproliferation assay, PC-3 prostate cancer
# DU 145 = assay: SRB antiproliferation assay, DU 145 prostate cancer; settings: read-out: IC50 DU 145, SRB
# LNCaP = assay: SRB antiproliferation assay, LNCaP prostate cancer; settings: read-out: IC50 LNCaP, SRB
# [7] = test system: prostate cancer cells (LNCaP, PC-3, DU-145, PPC-1); assay: SRB assay, prostate cancer cells; type: cell-based, human; settings: range over prostate cancer cell lines, read-out: IC50 values against prostate cancer cells
# A375 = assay: SRB antiproliferation assay, A375 melanoma; type: cell-based, human; settings: Homo sapiens, read-out: IC50 A375 (converted)
# Source text: (§2) For melanoma assays, one human melanoma cell line (A375) and one mouse melanoma cell line (B16-F1) were used. […] Fibroblast cells were used as a control to determine the selectivity of these compounds against melanoma. Human dermal fibroblast cells were purchased from Cascade Biologics, Inc., Portland, Oreg., USA.
# PPC-1 = assay: SRB antiproliferation assay, PPC-1 prostate cancer; settings: read-out: IC50 PPC-1, SRB
# melanoma cells = assay: SRB assay, melanoma cells; type: cell-based; settings: range over melanoma cell lines; read-out: IC50 values against melanoma cells
# Method: as §1
# B16-F1 = assay: SRB antiproliferation assay, B16-F1 melanoma; type: cell-based, mouse; settings: Mus musculus, read-out: IC50 B16-F1 (converted)
# Source text: as §2
# B16-F1 mouse melanoma = assay: B16-F1 melanoma tumor in C57BL/6 mice; type: in vivo; settings: B16-F1 in C57BL/6 mice, 6 mg/kg daily i.p.
# Method: B16 tumors will grow in a fully immunocompetent host, in which case the tumor progression may more accurately replicate melanoma growth. Logarithmic growth phase B16-F1 (3.8×10^5) cells were injected s.c. into the right dorsal flank of C57BL/6 mice. When tumors were palpable, mice were randomized into a control and a treatment group (n=9). […] Body weights were also recorded. Tumor volume was expressed as cubic millimeters. […] There was no significant body weight loss (<5%), and all mice had normal activities during the experiments.
# WM164 = assay: SRB antiproliferation assay, WM-164 melanoma; type: cell-based; settings: Homo sapiens
# MES-SA = assay: SRB antiproliferation assay, MES-SA uterine cancer; settings: Homo sapiens, 96 h, read-out: IC50 in the SRB, MES-SA
# MES-SA/DX5 = assay: SRB antiproliferation assay, doxorubicin-resistant MES-SA/DX5; settings: Homo sapiens, MES-SA/Dx5, 96 h, read-out: IC50 in the SRB, MES-SA/DX5, uterine MDR, 96 h, N = 3
# C26 = assay: SRB antiproliferation assay, C26 colon cancer; settings: C26, 96 h, read-out: IC50 in the SRB, C26
# [8] = metabolic stability in human liver microsomes; settings: Phase I conditions, FIG. 18
# MCF7 = assay: SRB antiproliferation assay, MCF7 breast cancer; settings: Homo sapiens, MCF7, 96 h, read-out: IC50 in the SRB, MCF7
# A549 = assay: SRB antiproliferation assay, A549 lung cancer; settings: Homo sapiens, A549, 96 h, read-out: IC50 in the SRB, A549
# [9] = test system: Human dermal fibroblast cells; assay: SRB assay, fibroblast control cells; type: cell-based
# Method: as §1
# [10] = test system: colchicine-binding site on tubulin; assay: competitive mass binding assay, colchicine-tubulin binding; settings: tubulin 1 mg/mL
# [11] = OVCAR-8, 96 h, read-out: IC50 in the SRB, OVCAR8
# [12] = 96 h, read-out: IC50 in the SRB, NCI/ADR-RES
# [13] = 5 mg/kg injected, 20 min-48 h, 5 mg/kg
smiles,measurement,setting,value
COc1cc(C(=O)c2cccc(-c3ccccc3)n2)cc(OC)c1OC,IC50,"OVCAR-8; OVCAR-8, read-out: IC50 OVCAR-8",33 ± 3 nM
same,IC50,NCI/ADR-RES; read-out: IC50 NCI/ADR-RES,13 ± 0.8 nM
COc1cc(C(=NC#N)c2csc(-c3ccccc3)n2)cc(OC)c1OC,Resistance factor,NCI/ADR-RES; NCI/ADR-RES vs OVCAR-8,0.4
"COc1cc(C(=O)c2csc(-c3ccccc3)n2)cc(OC)c1OC [8f, (2-Phenyl-thiazol-4-yl)-(3,4,5-trimethoxy-phenyl)-methanone]",melanoma colony formation,"[1]; A375, 0.03 μM",significantly inhibit
same,melanoma colony formation,"[1]; A375, 0.3 and 3 μM",completely inhibited
same,effect on cell cycle distribution,[2]; 10 nM,no effect
same,proportion of cells in G2/M phase,"[2]; 50 nM, about 10% in untreated cells",57%
same,proportion of cells in G2/M phase,[2]; 200 nM,63%
same,proportion of cells in G2/M phase,[2]; 500 nM,49%
same,IC50,[3],21 to 71 nM
same,MousePK_IV10mgk_CI,[4],130 mL/min/kg
same,MousePK_IV10mgk_V,[4],4.9 Lkg
same,RatPK IV CI at 2.5 mpk,[5]; IV 2.5 mpk,7.7 (2.5 mpk) mL/min/kg
same,RatPK IV V at 2.5 mpk,[5]; IV 2.5 mpk,4.9 (2.5 mpk) L/kg
same,GI50,"[6]; Homo sapiens, read-out: NCI-60 GI50 values",< 10 nM
same,NCI-60 TGI values,[6]; against most cell lines,micromolar range
"COc1cc(C(=O)c2csc(-c3ccccc3F)n2)cc(OC)c1OC [8l, [2-(2-Fluorophenyl)-thiazol-4-yl]-(3,4,5-trimethoxyphenyl)-methanone]",IC50,"PC-3; read-out: IC50 PC-3, SRB",82 nM
same,IC50,DU 145,114 nM
same,IC50,LNCaP,53 nM
same,IC50,[7]; Homo sapiens,52 to 114 nM
same,IC50,"A375; A-375, SRB",30 nM
same,IC50,PPC-1,52 nM
same,IC50,melanoma cells,27 to 30 nM
same,melting point,,90 to 102 °C
same,IC50,"B16-F1; B16-F1, SRB",27 nM
"COc1cc(C(=O)c2csc(-c3cccc(F)c3)n2)cc(OC)c1OC [8m, [2-(3-Fluorophenyl)-thiazol-4-yl](3,4,5-trimethoxyphenyl)-methanone]",IC50,"PC-3; read-out: IC50 PC-3, SRB",24 nM
same,IC50,DU 145,35 nM
same,IC50,LNCaP,11 nM
same,IC50,[7]; Homo sapiens,23 to 46 nM
same,IC50,"A375; A-375, SRB",304 nM
same,IC50,PPC-1,21 nM
same,IC50,melanoma cells,287 to 304 nM
same,IC50,"B16-F1; B16-F1, SRB",287 nM
"COc1cc(C(=O)c2csc(-c3ccc(F)cc3)n2)cc(OC)c1OC [8n, [2-(4-Fluorophenyl)-thiazol-4-yl]-(3,4,5-trimethoxyphenyl)-methanone]",melanoma colony formation,"[1]; A375, 0.03 μM",significantly inhibit
same,melanoma colony formation,"[1]; A375, 0.3 and 3 μM",completely inhibited
same,IC50,[7]; Homo sapiens,6 to 13 nM
same,IC50,[7],6 to 12 nM
same,body weight loss,B16-F1 mouse melanoma,< 5%
same,tumor growth inhibition,B16-F1 mouse melanoma,significant tumor growth inhibition
same,IC50,[3],6 to 43 nM
same,IC50,melanoma cells,33 to 43 nM
Cc1ccc(-c2nc(C(=O)c3ccc(F)cc3)cs2)cc1 [11-11],IC50,"A375; A-375, SRB",3470 nM
same,IC50,WM164,4700 nM
same,IC50,"B16-F1; B16-F1, SRB",4900 nM
O=C(c1ccc(OC(F)(F)F)cc1)c1csc(-c2ccccc2)n1 [13-13],IC50,"A375; A-375, SRB",> 10000 nM
same,IC50,WM164,> 10000 nM
same,IC50,"B16-F1; B16-F1, SRB",> 10000 nM
"COc1cc(C(=O)c2c[nH]c(-c3cn(S(=O)(=O)c4ccccc4)c4ccccc34)n2)cc(OC)c1OC [17yab, (2-(1-(Phenylsulfonyl)-1H-indol-3-yl)-1H-imidazol-4-yl)(3,4,5-trimethoxyphenyl)methanone]",IC50,"PC-3; read-out: IC50 PC-3, SRB",148 nM
same,IC50,DU 145,592 nM
same,IC50,LNCaP,234 nM
same,IC50,"A375; A-375, SRB",481 nM
same,IC50,PPC-1,209 nM
same,IC50,WM164,468 nM
same,IC50,"B16-F1; B16-F1, SRB",539 nM
COc1ccc(C(=O)n2ccnc2-c2ccc(F)cc2)cc1 [24-24],IC50,"A375; A-375, SRB",> 10000 nM
same,IC50,WM164,> 10000 nM
same,IC50,"B16-F1; B16-F1, SRB",> 10000 nM
COc1cc(C(=O)c2csc(-c3ccc4c(ccn4C)c3)n2)cc(OC)c1OC [31a],IC50,MES-SA,18 nM
same,IC50,"PC-3; read-out: IC50 in the SRB, PC3, 96 h treatment, N = 3, Table 15",5 nM
same,IC50,OVCAR-8; [11],16 nM
same,IC50,NCI/ADR-RES; [12],14 nM
same,IC50,MES-SA/DX5,18 nM
same,IC50,C26,16 nM
same,"stability in human liver microsomes, in words",[8],acceptable stability
same,IC50,MCF7,22 nM
same,IC50,A549,21 nM
COc1cc(C(=O)c2csc(-c3ccc4[nH]ccc4c3)n2)cc(OC)c1OC [compound 31],IC50,MES-SA,6 nM
same,IC50,"PC-3; read-out: IC50 PC-3, SRB",7.6 nM
same,IC50,OVCAR-8; [11],11 nM
same,IC50,NCI/ADR-RES; [12],5 nM
same,IC50,MES-SA/DX5,8 nM
same,IC50,C26,5 nM
same,"stability in human liver microsomes, in words",[8],acceptable stability
same,IC50,"A375; A-375, SRB",25 nM
same,IC50,MCF7,11 nM
same,IC50,A549,9 nM
same,IC50,"B16-F1; B16-F1, SRB",8.3 nM
same,AUC,[5]; [13],210 µg·min/mL and 249 µg·min/mL
same,CI,[5]; [13],23 mL/min/kg and 18 mL/min/kg
"COc1cc(/C(=N/O)c2csc(-c3ccccc3)n2)cc(OC)c1OC [compound 33, (Z)-(2-Phenylthiazol-4-yl)(3,4,5-trimethoxyphenyl)methanone oxime]",IC50,"A375; A-375, 48 h, SRB, 48 h",180 nM
same,melting point,,150 to 153 °C
same,IC50,[9],360 nM
same,IC50,"B16-F1; B16-F1, 48 h, SRB, 48 h",320 nM
"COc1cc(/C(=N\O)c2csc(-c3ccccc3)n2)cc(OC)c1OC [compound 34, (E)-(2-Phenylthiazol-4-yl)(3,4,5-trimethoxyphenyl)methanone oxime]",IC50,"PC-3; read-out: IC50 PC-3, SRB, 96 h",> 1000 nM
same,IC50,DU 145; 96 h,> 1000 nM
same,IC50,LNCaP; 96 h,> 1000 nM
same,IC50,PPC-1; 96 h,> 1000 nM
same,melting point,,176 to 177 °C
same,IC50,[9],10100 nM
"CC[C@]1(O)C[C@@H]2CN(CCc3c([nH]c4ccccc34)[C@@](C(=O)OC)(c3cc4c(cc3OC)N(C)[C@H]3[C@@](O)(C(=O)OC)[C@H](OC(C)=O)[C@]5(CC)C=CCN6CC[C@]43[C@@H]65)C2)C1 [vinblastine, reference compound]",competition with colchicine for tubulin binding,[10],did not inhibit the colchicine-tubulin binding
